Test system: adiponectin promoter
Test: Luciferase reporter screening of promoter transcriptional activity in stable C2C12 cell lines
Format: cell-based, mouse
Conditions: for activation ratio: C2C12 stable line, luciferase, vs vehicle; for concentration at which the greatest transactivation was achieved: dose-response curve of the commercial activator on the target promoter
From the text: The following protocol has been followed for the purpose of analyzing the potential therapeutic activity against obesity, type 2 diabetes mellitus and atherosclerosis (ODA metabolic diseases) of the compounds 1-5: • generating cell lines which have stably integrated human promoters of key genes in the development of ODA diseases; • amplifying the human promoter sequence of the target genes starting from commercial human genomic DNA; • cloning the promoter into a suitable vector which allows knowing the transcriptional activity of the promoter sequence, using the luciferase gene as a reporter gene; • generating stable cell lines for each of the promoters cloned into the reporter vectors; • carrying out the screening test with the compounds of the invention on the stable cell lines; • suitably validating the effect obtained with a certain compound which can modify the transcriptional activity of the promoter.
The selected cell line is C2C12, corresponding to myoblasts from mouse muscle tissue.
The luciferase activity is measured according to the following protocol: • a) 50000 and […] cells/well (and in duplicate) are seeded in a P24 plate. • b) After approximately 24 hours, the medium is removed from the cells and each well is washed with PBS 1× (because DMEM interferes in the measurement of the activity of the reporter gene) • c) 100 μl of luciferase developing reagent are added in each cell (Bright-Glo™ Luciferase Assay system—Promega). This reagent carries the reporter gene substrate and luminescence is generated as the product of the enzymatic reaction. The cells which have acquired the reporter gene, and therefore the target promoter, will be luminescent upon being in the presence of said substrate. To record the measurement of luciferase activity, the plate is shaken for 30 seconds right after adding the developing reagent and after 2 minutes, the volume is collected and transferred to a 96-well plate (P96), which can be read in an illuminometer. • d) The suitable luminescence program is selected, such that the reading lasts 5 seconds per well, and the arbitrary luminescence units are recorded for each obtained clone or, in other words, for each stable cell line.
Carrying out the screening test: The clones used in the screening are: C2C12 Adipo (adiponectin promoter), C2C12 UCP3 (UCP3 promoter), C2C12 AdR1 (adiponectin receptor 1 promoter) and C2C12 Nmu (neuromedin promoter).
Before any screening experiment, the suitable number of cells for carrying out such experiments must first be provided. To that end, 2 T75 are usually seeded (with approximately 1×10^6 cells in each bottle), such that after four days, the cells have reached confluence and are ready for the screening protocol detailed below to be carried out. • 1. Day 1: 30000 cells per well are seeded in white P96 plates; these plates allow amplifying the luminescence signal and improving the reading. The cells are grown in 100 μl of hygromycin-free medium. • 2. Day 2: 24 hours after the seeding, the cells are stimulated with compounds 1-5. […]
[drawing 16] • ? In the indicated positions, the baseline transcriptional activity of the promoters to be studied is recorded in the presence of the medium in which compounds 1-5 (vehicle) are dissolved. • ? In the indicated positions, the transcriptional activity of the promoters to be studied is recorded in the presence of a known commercial activator of the target promoter. […]

[1] = 0.5 μM, 48 hours after stimulation
[2] = 1 μM, 48 hours after stimulation
[3] = 5 μM, 48 hours after stimulation
[4] = 10 μM, 48 hours after stimulation
[5] = 25 μM, 48 hours after stimulation
[6] = 20 μM, 48 hours after stimulation

O=C(Nc1nccs1)c1ccccn1 [Compound 3, pyridin-2-carboxylic acid thiazol-2-yl-amide]
activation ratio [1]: 1.40 | activation ratio [2]: 1.71 | activation ratio [3]: 3.23 | activation ratio [4]: 3.82 | activation ratio [5]: 3.73 | activation ratio (50 μM, dose-response curve): 3.20 | activation ratio (100 μM, dose-response curve): 1.61 | activation ratio (200 μM, dose-response curve): 0.75

O=c1c(-c2ccc(O)cc2)coc2cc(O)cc(O)c12 [Genistein]
activation ratio [2]: 1.47 | activation ratio [3]: 2.25 | activation ratio [4]: 3.59 | activation ratio [6]: 3.05 | activation ratio (50 μM, dose-response curve): 1.97 | activation ratio (100 μM, dose-response curve): 1.75 | activation ratio (200 μM, dose-response curve): 1.59 | concentration at which the greatest transactivation was achieved: 20 µM

O=C(Nc1nccs1)c1n[nH]c2ccccc12 [Compound 1, thiazol-2-ylamide compound of 1H-indazole-3-carboxylic acid]
activation ratio (0.1 μM, 48 hours after stimulation): 1.28 | activation ratio [1]: 3.66 | activation ratio [2]: 4.59 | activation ratio [4]: 5.52 | activation ratio [5]: 3.58 | activation ratio (50 μM, dose-response curve): 2.29 | activation ratio (100 μM, dose-response curve): 0.71 | activation ratio (400 μM, dose-response curve): 0.12

O=c1c(-c2ccc(O)cc2)coc2cc(O)ccc12 [Daidzein]
activation ratio [2]: 1.68 | activation ratio [3]: 3.03 | activation ratio [4]: 3.76 | activation ratio [6]: 4.04 | activation ratio (50 μM, dose-response curve): 4.05 | activation ratio (100 μM, dose-response curve): 3.71 | concentration at which the greatest transactivation was achieved: 20 µM

CN(CCOc1ccc(CC2SC(=O)NC2=O)cc1)c1ccccn1 (centres unmarked) [Rosiglitazone]
concentration at which the greatest transactivation was achieved: 20 µM

Source: US20110213000A1, “N-(2-THIAZOLYL)-AMIDE DERIVATIVES FOR THE TREATMENT OF OBESITY, DIABETES AND CARDIOVASCULAR DISEASES” (ZELTIA, S.A., priority 2007, published 2011)
